In patent US10023839B2, “Anti-tumour vaccine derived from normal cells” (Cytovac A/S, priority 2007, dated 2018):

System: cancer/testis antigens (MAGE-A1, -A3, -A4, -A6, -A10, -A12, NY-ESO-1, GAGE-3-7, BORIS) in proliferating lymphocytes
Test: RT-PCR analysis of cancer/testis antigen expression in 5-Aza-CdR-treated proliferating lymphocytes

In the case of `Nc1ncn([C@H]2C[C@H](O)[C@@H](CO)O2)c(=O)n1` [Culture 5-Aza-CdR, 5-Aza-2′-deoxycytidine], the “induction of CTA expression (RT-PCR)” value (10 μM 5-aza-2′-deoxycytidine, 150 IU/ml IL-2, 3 days, lymphocytes expanded with autologous mature dendritic cells) is reported as “all the investigated antigens are present in the induced lymphocytes”, the “CTA expression, cultures from log phase of growth (day 8) versus plateau (day 10)” value (10 μM 5-aza-2′-deoxycytidine, 3 days) is reported as “higher expression in cultures taken from log phase of growth” and the “most easily inducible CTA” value (preliminary experiments on kinetics and concentration dependence (not shown)) is reported as “MAGE-A1, MAGE-A4 and MAGE-A12”.
